In US12187721B2, “Protein tyrosine phosphatase inhibitors” (Array BioPharma Inc., priority 2018, dated 2025):
Where a name gives a salt, the structure may show the parent alone.

Molecular target: T1, full-length SHP2 (His6-tagged SHP2(2-527)) (Homo sapiens, UniProt Q06124)
T1 construct: His6-tagged SHP2(2-527); His6; made in house; host or cells: E. coli
Assay: SHP2 Enzymatic Assay (fluorescence intensity kinetic assay, DiFMUP hydrolysis)
Type: biochemical
Details: not given
Outline: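 1 nM His6-SHP2(2-527), activated by 1 μM bis-phosphopeptide, hydrolysed 50 μM DiFMUP in 25 mM HEPES pH 7.4 with 1 mM DTT, 50 mM KCl and 2% DMSO. DiFMU fluorescence (Ex 355/Em 460 nm) was read kinetically for 15 min at ambient temperature.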

T1 sequence (Q06124 2-527): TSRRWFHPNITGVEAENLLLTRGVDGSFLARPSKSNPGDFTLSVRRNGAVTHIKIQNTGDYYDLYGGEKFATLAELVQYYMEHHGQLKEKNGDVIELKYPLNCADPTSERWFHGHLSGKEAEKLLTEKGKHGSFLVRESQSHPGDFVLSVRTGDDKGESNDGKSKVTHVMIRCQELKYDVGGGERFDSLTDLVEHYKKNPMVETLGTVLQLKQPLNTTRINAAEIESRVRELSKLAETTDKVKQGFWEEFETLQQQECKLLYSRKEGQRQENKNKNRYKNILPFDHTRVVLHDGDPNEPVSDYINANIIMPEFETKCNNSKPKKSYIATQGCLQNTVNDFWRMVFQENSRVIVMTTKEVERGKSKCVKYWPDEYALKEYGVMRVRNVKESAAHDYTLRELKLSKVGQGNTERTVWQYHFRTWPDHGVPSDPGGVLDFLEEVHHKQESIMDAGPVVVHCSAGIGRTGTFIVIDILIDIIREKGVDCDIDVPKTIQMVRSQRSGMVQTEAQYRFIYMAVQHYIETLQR

Compound | IC50 [µM]
CC1(N)CCN(c2cnc3nc(Sc4ccc(N)nc4Cl)ccc3n2)CC1 [Example 97, 5-((2-(4-amino-4-methylpiperidin-1-yl)pyrido[2,3-b]pyrazin-6-yl)thio)-6-chloropyridin-2-amine] | 0.176
Cc1ccc(Sc2ccc3nc(N4CCC(C)(N)CC4)cnc3n2)c(Cl)n1 [Example 98, 1-(6-((2-chloro-6-methylpyridin-3-yl)thio)pyrido[2,3-b]pyrazin-2-yl)-4-methylpiperidin-4-amine] | 0.169
Nc1nccc(Sc2ccc3nc(N4CC5CCCC(N)C5C4)cnc3n2)c1Cl (centres unmarked) [Example 99, 2-(6-((2-amino-3-chloropyridin-4-yl)thio)pyrido[2,3-b]pyrazin-2-yl)octahydro-1H-isoindol-4-amine] | 0.157
Nc1nccc(Sc2ccc3nc(N4CC5CCC(N)C5C4)cnc3n2)c1Cl (centres unmarked) [Example 100, 2-(6-((2-amino-3-chloropyridin-4-yl)thio)pyrido[2,3-b]pyrazin-2-yl)octahydrocyclopenta[c]pyrrol-4-amine] | 0.121
NCC1CC2CCCC(C1)N2c1cnc2nc(Sc3ccnc(N)c3Cl)ccc2n1 (centres unmarked) [Example 101, 4-((2-(3-(aminomethyl)-9-azabicyclo[3.3.1]nonan-9-yl)pyrido[2,3-b]pyrazin-6-yl)thio)-3-chloropyridin-2-amine] | 0.056
NCC1CC2CCC(C1)N2c1cnc2nc(Sc3ccnc(N)c3Cl)ccc2n1 (centres unmarked) [Example 102, 4-((2-(3-(aminomethyl)-8-azabicyclo[3.2.1]octan-8-yl)pyrido[2,3-b]pyrazin-6-yl)thio)-3-chloropyridin-2-amine] | 0.044
Nc1nccc(Sc2ccc3nc(N4CCC5NCC5C4)cnc3n2)c1Cl (centres unmarked) [Example 103, 4-((2-(3,7-diazabicyclo[4.2.0]octan-3-yl)pyrido[2,3-b]pyrazin-6-yl)thio)-3-chloropyridin-2-amine] | 0.079
Nc1nccc(Sc2ccc3nc(N4CCC(N)(C(F)(F)F)CC4)cnc3n2)c1Cl [Example 104, 4-((2-(4-amino-4-(trifluoromethyl)piperidin-1-yl)pyrido[2,3-b]pyrazin-6-yl)thio)-3-chloropyridin-2-amine] | 3.35
C[C@@H]1OCC2(CCN(c3cnc4nc(Sc5ccc(N)nc5Cl)ccc4n3)CC2)[C@@H]1N [Example 105, (3S,4S)-8-(6-((6-amino-2-chloropyridin-3-yl)thio)pyrido[2,3-b]pyrazin-2-yl)-3-methyl-2-oxa-8-azaspiro[4.5]decan-4-amine] | 0.082
C[C@@H]1OCC2(CCN(c3cnc4nc(Sc5ccnc(N6CC[C@@H](CO)C6)c5Cl)ccc4n3)CC2)[C@@H]1N [Example 106, ((R)-1-(4-((2-((3S,4S)-4-amino-3-methyl-2-oxa-8-azaspiro[4.5]decan-8-yl)pyrido[2,3-b]pyrazin-6-yl)thio)-3-chloropyridin-2-yl)pyrrolidin-3-yl)methanol] | 0.101
C[C@@H]1OCC2(CCN(c3cnc4nc(Sc5ccnc(N6CC[C@@H](O)C6)c5Cl)ccc4n3)CC2)[C@@H]1N [Example 107, (R)-1-(4-((2-((3S,4S)-4-amino-3-methyl-2-oxa-8-azaspiro[4.5]decan-8-yl)pyrido[2,3-b]pyrazin-6-yl)thio)-3-chloropyridin-2-yl)pyrrolidin-3-ol] | 0.12
C[Si]1(CN)CCN(c2cnc3nc(Sc4ccnc(N)c4Cl)ccc3n2)CC1 [Example 109, 4-((2-(4-(Aminomethyl)-4-methyl-1,4-azasilinan-1-yl)pyrido[2,3-b]pyrazin-6-yl)thio)-3-chloropyridin-2-amine] | 0.027
N[C@@H]1c2ccccc2CC12CCN(c1cnc3nc(Sc4ccnc(NCCO)c4Cl)ccc3n1)CC2 [Example 110, (S)-2-((4-((2-(1-amino-1,3-dihydrospiro[indene-2,4′-piperidin]-1′-yl)pyrido[2,3-b]pyrazin-6-yl)thio)-3-chloropyridin-2-yl)amino)ethan-1-ol] | 0.044
N#Cc1ccc2c(c1)[C@H](N)C1(CCN(c3cnc4nc(Sc5ccnc(N)c5Cl)ccc4n3)CC1)C2 [Example 111, (R)-1-amino-1′-(6-((2-amino-3-chloropyridin-4-yl)thio)pyrido[2,3-b]pyrazin-2-yl)-1,3-dihydrospiro[indene-2,4′-piperidine]-6-carbonitrile] | 0.034
Cc1ccc2c(n1)CC1(CCN(c3cnc4nc(Sc5ccnc(N)c5Cl)ccc4n3)CC1)[C@H]2N [Example 113, (R)-1′-(6-((2-amino-3-chloropyridin-4-yl)thio)pyrido[2,3-b]pyrazin-2-yl)-2-methyl-5,7-dihydrospiro[cyclopenta[b]pyridine-6,4′-piperidin]-5-amine] | 0.053
Nc1ncc(Sc2ccc3nc(N4CCC5(CC4)Cc4ccccc4[C@H]5N)cnc3n2)c(Cl)c1Cl [Example 119, (S)-1′-(6-((6-amino-4,5-dichloropyridin-3-yl)thio)pyrido[2,3-b]pyrazin-2-yl)-1,3-dihydrospiro[indene-2,4′-piperidin]-1-amine] | 0.039
Cc1nc2nc(Sc3cccc(Cl)c3Cl)ccc2nc1N1CCC(C)(N)CC1 [Example 120, 1-(6-((2,3-dichlorophenyl)thio)-3-methylpyrido[2,3-b]pyrazin-2-yl)-4-methylpiperidin-4-amine] | 0.633
C[C@@H]1C[C@H](N)CCN1c1cnc2nc(Sc3ccnc(N)c3Cl)ccc2n1 [Example 121, 4-((2-((2R,4R)-4-amino-2-methylpiperidin-1-yl)pyrido[2,3-h]pyrazin-6-yl)thio)-3-chloropyridin-2-amine] | 0.099
C[C@@H]1C[C@@H](N)CCN1c1cnc2nc(Sc3ccnc(N)c3Cl)ccc2n1 [Example 122, 4-((2-((2R,4S)-4-amino-2-methylpiperidin-1-yl)pyrido[2,3-b]pyrazin-6-yl)thio)-3-chloropyridin-2-amine dihydrochloride] | 0.064
N[C@@H]1c2ccccc2CC12CCN(c1cnc3nc(Oc4ccc(F)cc4)ccc3n1)CC2 [Example 123, (S)-1′-(6-(4-fluorophenoxy)pyrido[2,3-b]pyrazin-2-yl)-1,3-dihydrospiro[indene-2,4′-piperidin]-1-amine] | 0.021
Nc1nccc(Sc2ccc3nc(N4CC5(Cc6ccccc6[C@H]5N)C4)cnc3n2)c1Cl [Example 124, (R)-1-(6-((2-amino-3-chloropyridin-4-yl)thio)pyrido[2,3-b]pyrazin-2-yl)-1′,3′-dihydrospiro[azetidine-3,2′-inden]-1′-amine] | 0.052
Cc1cccc2c1CC1(CCN(c3cnc4nc(Sc5ccnc(N)c5Cl)ccc4n3)CC1)[C@@H]2N [Example 126, (S)-1′-(6-((2-amino-3-chloropyridin-4-yl)thio)pyrido[2,3-b]pyrazin-2-yl)-4-methyl-1,3-dihydrospiro[indene-2,4′-piperidin]-1-amine] | 0.03
N[C@@H]1c2ccccc2CC12CCN(c1cnc3nc(Sc4cnc5ccc(Cl)cn45)ccc3n1)CC2 [Example 127, (S)-1′-(6-((6-chloroimidazo[1,2-a]pyridin-3-yl)thio)pyrido[2,3-b]pyrazin-2-yl)-1,3-dihydrospiro[indene-2,4′-piperidin]-1-amine] | 0.082
Nc1nccc(Sc2ccc3nc(N4CCC(N)(CCO)CC4)cnc3n2)c1Cl [Example 128, 2-(4-amino-1-(6-((2-amino-3-chloropyridin-4-yl)thio)pyrido[2,3-b]pyrazin-2-yl)piperidin-4-yl)ethan-1-ol] | 0.1
CC(C)(O)CC1(N)CCN(c2cnc3nc(Sc4ccnc(N)c4Cl)ccc3n2)CC1 [Example 129, 1-(4-amino-1-(6-((2-amino-3-chloropyridin-4-yl)thio)pyrido[2,3-b]pyrazin-2-yl)piperidin-4-yl)-2-methylpropan-2-ol] | 0.034
CCC1(N)CCN(c2cnc3nc(Sc4ccnc(N)c4Cl)ccc3n2)CC1 [Example 130, 4-((2-(4-amino-4-ethylpiperidin-1-yl)pyrido[2,3-b]pyrazin-6-yl)thio)-3-chloropyridin-2-amine] | 0.096
C[C@@H]1OCC2(CCN(c3cnc4nc(Sc5ccnc6[nH]cnc56)ccc4n3)CC2)[C@@H]1N [Example 131, (3S,4S)-8-(6-((3H-imidazo[4,5-b]pyridin-7-yl)thio)pyrido[2,3-b]pyrazin-2-yl)-3-methyl-2-oxa-8-azaspiro[4.5]decan-4-amine] | 0.419
Nc1nccc(Sc2ccc3nc(N4CCC5(CC4)Oc4ccccc4[C@H]5N)cnc3n2)c1Cl [Example 132] | 0.031
Nc1cc(Sc2ccc3nc(N4CCC5(CC4)Cc4ncccc4[C@H]5N)cnc3n2)c(Cl)cn1 [Example 133, (S)-1′-(6-((2-amino-5-chloropyridin-4-yl)thio)pyrido[2,3-b]pyrazin-2-yl)-5,7-dihydrospiro[cyclopenta[b]pyridine-6,4′-piperidin]-5-amine] | 0.092
C[C@@H]1OCC2(CCN(c3cnc4nc(N5CCCc6ncccc65)ccc4n3)CC2)[C@@H]1N [Example 135, (3S,4S)-8-(6-(3,4-dihydro-1,5-naphthyridin-1(2H)-yl)pyrido[2,3-b]pyrazin-2-yl)-3-methyl-2-oxa-8-azaspiro[4.5]decan-4-amine] | 4.03

Same assay, conditions: full-length SHP2 with 1 μM activating peptide, 50 μM DiFMUP; single assay or mean of multiple assays; read-out: Biological Example 1 IC50

Compound | IC50 [µM]
Cc1ccc2c(n1)CC1(CCN(c3cnc4nc(Sc5ccnc(N)c5Cl)ccc4n3)CC1)[C@@H]2N [Example 114, (S)-1′-(6-((2-amino-3-chloropyridin-4-yl)thio)pyrido[2,3-b]pyrazin-2-yl)-2-methyl-5,7-dihydrospiro[cyclopenta[b]pyridine-6,4′-piperidin]-5-amine] | 0.04
COc1cnc2c(c1)[C@@H](N)C1(CCN(c3cnc4nc(Sc5ccnc(N)c5Cl)ccc4n3)CC1)C2 [Example 115, (S)-1′-(6-((2-amino-3-chloropyridin-4-yl)thio)pyrido[2,3-b]pyrazin-2-yl)-3-methoxy-5,7-dihydrospiro[cyclopenta[b]pyridine-6,4′-piperidin]-5-amine] | 0.06
